Tested on: 323965-272-R-J2-PDC complex spheroid viability
Assay: Anticancer human tumor 323965-272-R-J2-PDC patient-derived pancreatic carcinoma cell line growth inhibition [CLK]
Conditions: for IC50: curve of first compound; for viability, T/C: stronger effect = lower value
In short: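 Multi-cell-type spheroids combined patient-derived tumor cells with HUVEC endothelial cells and human mesenchymal stem cells. Paired agents were dosed in half-log steps down from about clinical Cmax, or from 10 microM where Cmax was unknown.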
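Further: spheroids exposed to agents for seven days before readout.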
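Wherever viability, T/C is given: percent of DMSO vehicle control wells so 100% = untreated growth.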

C=CC(=O)N1CCN(c2nc(=O)n(-c3c(C)ccnc3C(C)C)c3nc(-c4c(O)cccc4F)c(F)cc23)C(C)C1 (configuration not stated) + CNC(=O)c1ccc(Nc2nc(OC3CCCC3)c3c(-c4ccc5nc(C)oc5c4)c[nH]c3n2)c(OC)c1 showed an IC50 (second compound 0.0316 µM) greater than 10000 nM, an IC50 (second compound 0.1 µM) greater than 10000 nM and an IC50 (second compound 0.316 µM) of less than 31.6 nM. The IC50 (second compound 1 µM) was less than 31.6 nM, the IC50 (second compound 3.16 µM) was less than 31.6 nM and the IC50 (second compound 10 µM) was less than 31.6 nM. The viability, T/C (second compound 0.0316 µM, first compound 0.0316 µM) was 61.4%, the viability, T/C (second compound 0.0316 µM, first compound 0.1 µM) was 66.7% and the viability, T/C (second compound 0.0316 µM, first compound 0.316 µM) was 66.9%. It also gave a viability, T/C (second compound 0.0316 µM, first compound 1 µM) of 73.9%, a viability, T/C (second compound 0.0316 µM, first compound 3.16 µM) of 69% and a viability, T/C (second compound 0.0316 µM, first compound 10 µM) of 76.4%. The viability, T/C (second compound 0.1 µM, first compound 0.0316 µM) was 66.6%, the viability, T/C (second compound 0.1 µM, first compound 0.1 µM) was 59.5% and the viability, T/C (second compound 0.1 µM, first compound 0.316 µM) was 59.1%. For the same compound, the viability, T/C (second compound 0.1 µM, first compound 1 µM) was 55.4%, the viability, T/C (second compound 0.1 µM, first compound 3.16 µM) was 59.5% and the viability, T/C (second compound 0.1 µM, first compound 10 µM) was 58.7%. The viability, T/C (second compound 0.316 µM, first compound 0.0316 µM) was 44.8%, the viability, T/C (second compound 0.316 µM, first compound 0.1 µM) was 41.1% and the viability, T/C (second compound 0.316 µM, first compound 0.316 µM) was 39.7%. For the same compound, the viability, T/C (second compound 0.316 µM, first compound 1 µM) was 47.8%, the viability, T/C (second compound 0.316 µM, first compound 3.16 µM) was 45.1% and the viability, T/C (second compound 0.316 µM, first compound 10 µM) was 44.4%. The viability, T/C (second compound 1 µM, first compound 0.0316 µM) was 28.3%, the viability, T/C (second compound 1 µM, first compound 0.1 µM) was 25.1% and the viability, T/C (second compound 1 µM, first compound 0.316 µM) was 24.4%. The viability, T/C (second compound 1 µM, first compound 1 µM) was 27.9%, the viability, T/C (second compound 1 µM, first compound 3.16 µM) was 28.2% and the viability, T/C (second compound 1 µM, first compound 10 µM) was 29%. For the same compound, the viability, T/C (second compound 3.16 µM, first compound 0.0316 µM) was 26.9%, the viability, T/C (second compound 3.16 µM, first compound 0.1 µM) was 25.8% and the viability, T/C (second compound 3.16 µM, first compound 0.316 µM) was 28.5%. It also gave a viability, T/C (second compound 3.16 µM, first compound 1 µM) of 23.9%, a viability, T/C (second compound 3.16 µM, first compound 3.16 µM) of 26.6% and a viability, T/C (second compound 3.16 µM, first compound 10 µM) of 30.3%. It also gave a viability, T/C (second compound 10 µM, first compound 0.0316 µM) of 23.2%, a viability, T/C (second compound 10 µM, first compound 0.1 µM) of 21.4% and a viability, T/C (second compound 10 µM, first compound 0.316 µM) of 26.9%. It also gave a viability, T/C (second compound 10 µM, first compound 1 µM) of 24.4%, a viability, T/C (second compound 10 µM, first compound 3.16 µM) of 27.1% and a viability, T/C (second compound 10 µM, first compound 10 µM) of 28.6%.

— PubChem BioAssay AID2060619 (Molecular Pharmacology Branch, DTP, NCI, 2025)
